Converted amounts (≈) assume the structure as drawn. Read-outs that look alike come from different tables or passages of the source. Starred links: 1 amine or outer side, 2 acyl side, 3 side chain; linkers in the order of their positions; H or OH if unused. Positions of bridges follow the written chain, without caps; N, C: chain ends. Non-standard residues stand in square brackets, D forms with d. Residues, ends and D or L forms follow the SMILES beside them. *: point of attachment. Decanoyl(3R-OH) = CCCCCCC[C@@H](O)CC(=O)*; NH(2-ClPh) = Clc1ccccc1N*; dDab = NCC[C@@H](N)C(=O)O; Octanoyl = CCCCCCCC(=O)*; dDap = NC[C@@H](N)C(=O)O; Dab = NCC[C@H](N)C(=O)O; CO = O=C([*:1])[*:2]
How the values were obtained:
[1] = test system: A. baumannii ATCC 19606
Summary of the method: (§1)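 Mid-log cultures grown in Mueller Hinton broth at 37° C were tested by 2-fold broth microdilution at 5×10^5 CFU/mL final. Compounds were dissolved in water and tested over a final range of 32 to 0.015 μg/mL.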

[2] = test system: A. baumannii GN_093 PmxR
Summary of the method: as §1

[3] = test system: E. coli ATCC 25922
Summary of the method: as §1

[4] = test system: K. pneumoniae ATCC 13883
Summary of the method: as §1

[5] = test system: K. pneumoniae ATCC 700603, MDR
Summary of the method: as §1

[6] = test system: K. pneumoniae ATCC BAA-2146, NDM-1 pos
Summary of the method: as §1

[7] = test system: K. pneumoniae GN_102 PmxR
Summary of the method: as §1

[8] = test system: K. pneumoniae GN_106, PmxR
Summary of the method: as §1

[9] = test system: P. aeruginosa ATCC 27853
Summary of the method: as §1

[10] = test system: P. aeruginosa GN_043, PmxR
Summary of the method: as §1

[11] = test system: P. aeruginosa GN_105, PmxR
Summary of the method: as §1

[12] = test system: S. aureus ATCC 25923, MSSA
Summary of the method: as §1

[13] = in vitro; conditions: human
Summary of the method: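 Cells were seeded at 4000 per well and allowed to attach for 24 h at 37 °C, 5% CO2, then exposed to compounds for 24 h. Resazurin (5 μM) was added for 2 h at 37 °C and fluorescence read at 560/590 nm. CC50 was derived by curve fitting of dose-dependent growth inhibition.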

Compound | MIC A. baumannii GN_093 PmxR ([2]; GN 093 PmxR) [µg/mL] | MIC K. pneumoniae GN_102 PmxR ([7]; GN 102 PmxR) [µg/mL] | MIC K. pneumoniae GN_106, PmxR ([8]; GN 106, PmxR) [µg/mL] | MIC P. aeruginosa GN_105, PmxR ([11]; GN 105, PmxR) [µg/mL] | CC50 at 24 h [13] [µM] | MIC, A. baumannii ATCC 19606 ([1]; ATCC 19606) [µg/mL] | MIC, E. coli ATCC 25922 ([3]; ATCC 25922) [µg/mL] | MIC, K. pneumoniae ATCC 13883 ([4]; ATCC 13883) [µg/mL] | MIC, K. pneumoniae ATCC 700603, MDR ([5]; ATCC 700603) [µg/mL] | MIC, K. pneumoniae ATCC BAA-2146, NDM-1 pos ([6]; ATCC BAA-2146) [µg/mL] | MIC, P. aeruginosa ATCC 27853 ([9]; ATCC 27853) [µg/mL] | MIC P. aeruginosa GN_043, PmxR ([10]; Table 6, polymyxin-resistant) [µg/mL] | MIC, S. aureus ATCC 25923, MSSA ([12]; ATCC 25923) [µg/mL] | also measured
CCCCCCC[C@@H](O)CC(=O)N[C@H](CCN)C(=O)N[C@H]1CCNC(=O)[C@H](Cc2c[nH]cn2)NC(=O)[C@H](CCN)NC(=O)[C@H](CCN)NC(=O)[C@H](CC(C)C)NC(=O)[C@@H](Cc2ccccc2)NC(=O)[C@H](CCN)NC1=O [compound 8911, 3(R)OH-nC9CO-D-Dab-cyc[L-Dab-L-Dab-D-Phe-L-Leu-L-Dab-L-Dab-L-His]] ({Decanoyl(3R-OH)}-[dDab][Dab][Dab][dF]L[Dab][Dab]H; lactam 2-C) | >32 | >32 | 32 (≈ 30 µM) | 16 (≈ 15 µM) | > 300 | – | – | – | – | – | – | – | – | MIC A. baumannii ATCC 19606 ([1]; ATCC 19606): >32 µg/mL; MIC E. coli ATCC 25922 ([3]; ATCC 25922): 8 µg/mL (≈ 7.49 µM); MIC K. pneumoniae ATCC 13883 ([4]; ATCC 13883): >32 µg/mL; MIC K. pneumoniae ATCC 700603, MDR ([5]; ATCC 700603): 8 µg/mL (≈ 7.49 µM); MIC K. pneumoniae ATCC BAA-2146, NDM-1 pos ([6]; ATCC BAA-2146): 16 µg/mL (≈ 15 µM); MIC P. aeruginosa ATCC 27853 ([9]; ATCC 27853): 2 µg/mL (≈ 1.87 µM); MIC P. aeruginosa GN_043, PmxR ([10]; polymyxin-resistant): 2 µg/mL (≈ 1.87 µM); MIC S. aureus ATCC 25923, MSSA ([12]; ATCC 25923): >32 µg/mL
CCCCCCCC(=O)N[C@H](CN)C(=O)N[C@H]1CCNC(=O)[C@H](CC(C)C)NC(=O)[C@H](CCN)NC(=O)[C@H](CCN)NC(=O)[C@H](CC(C)C)NC(=O)[C@@H](Cc2ccccc2)NC(=O)[C@H](CCN)NC1=O [compound 8976, nC7CO-D-Dap-cyc[L-Dab-L-Dab-D-Phe-L-Leu-L-Dab-L-Dab-L-Leu]] (Octanoyl-[dDap][Dab][Dab][dF]L[Dab][Dab]L; lactam 2-C) | 8 (≈ 8.11 µM) | 16 (≈ 16.2 µM) | 16 (≈ 16.2 µM) | 2 (≈ 2.03 µM) | > 300 | >32 | 4 (≈ 4.06 µM) | 8 (≈ 8.11 µM) | 8 (≈ 8.11 µM) | 8 (≈ 8.11 µM) | 2 (≈ 2.03 µM) | 2 (≈ 2.03 µM) | >32 | –
CC(=O)N[C@H](CN)C(=O)N[C@H]1CCNC(=O)[C@H](CC(C)C)NC(=O)[C@H](CCN)NC(=O)[C@H](CCN)NC(=O)[C@H](CC(C)C)NC(=O)[C@@H](Cc2ccccc2)NC(=O)[C@H](CCN)NC1=O [compound 8980, Ac-D-Dap-cyc[L-Dab-L-Dab-D-Phe-L-Leu-L-Dab-L-Dab-L-Leu]] (Ac-[dDap][Dab][Dab][dF]L[Dab][Dab]L; lactam 2-C) | >32 | >32 | >32 | >32 | > 300 | >32 | >32 | >32 | 32 (≈ 35.5 µM) | 32 (≈ 35.5 µM) | 4 (≈ 4.43 µM) | >32 | >32 | –
CC(C)C[C@@H]1NC(=O)[C@H](CCN)NC(=O)[C@H](CCN)NC(=O)[C@H](CC(C)C)NC(=O)[C@@H](Cc2ccccc2)NC(=O)[C@H](CCN)NC(=O)[C@@H](NC(=O)[C@@H](CN)NC(=O)Nc2ccccc2Cl)CCNC1=O [compound 9188, 2-ClPh-NHCO-D-Dap-cyc[L-Dab-L-Dab-D-Phe-L-Leu-L-Dab-L-Dab-L-Leu]] ({NH(2-ClPh)-CO}-[dDap][Dab][Dab][dF]L[Dab][Dab]L; lactam 2-C) | – | – | – | – | > 300 | – | – | – | – | – | – | – | – | MIC A. baumannii ATCC 19606 ([1]; A. baumannii ATCC 19606): >32 µg/mL; MIC A. baumannii GN_093 PmxR ([2]; A. baumannii GN_093 PmxR): >16 µg/mL; MIC E. coli ATCC 25922 ([3]; E. coli ATCC 25922): 8 µg/mL (≈ 7.89 µM); MIC K. pneumoniae ATCC 13883 ([4]; K. pneumoniae ATCC 13883): 16 µg/mL (≈ 15.8 µM); MIC K. pneumoniae ATCC 700603, MDR ([5]; K. pneumoniae ATCC 700603, MDR): 8 µg/mL (≈ 7.89 µM); MIC K. pneumoniae ATCC BAA-2146, NDM-1 pos ([6]; K. pneumoniae ATCC BAA-2146, NDM-1 pos): 8 µg/mL (≈ 7.89 µM); MIC K. pneumoniae GN_102 PmxR ([7]; K. pneumoniae GN_102 PmxR): >16 µg/mL; MIC K. pneumoniae GN_106, PmxR ([8]; K. pneumoniae GN_106, PmxR): >16 µg/mL; MIC P. aeruginosa ATCC 27853 ([9]; P. aeruginosa ATCC 27853): 2 µg/mL (≈ 1.97 µM); MIC P. aeruginosa GN_043, PmxR ([10]; P. aeruginosa GN_043, PmxR): >16 µg/mL; MIC P. aeruginosa GN_105, PmxR ([11]; P. aeruginosa GN_105, PmxR): >16 µg/mL; MIC S. aureus ATCC 25923, MSSA ([12]; S. aureus ATCC 25923, MSSA): >16 µg/mL

Reference: patent US11279733B2, “Peptide antibiotics” (priority 2017, dated 2022)
